Data from paper PMC3499949 (Journal of medicinal chemistry, 2012).

Experiments:
[1] = target: T1, DOR (Mus musculus, UniProt P32300); experiment: [35S]GTP-γ-S binding assay, agonist stimulation, DOR; details: for DOR EC50: stimulation of [35S]GTP-γ-S binding, no stim = no stimulation at 10 µM
[2] = target: T2, hKOR (Homo sapiens, UniProt P41145); experiment: [35S]GTP-γ-S binding assay, antagonist shift design, KOR; format: biochemical
[3] = target: T1, DOR; experiment: [35S]GTP-γ-S binding assay, antagonist shift design, DOR; format: biochemical
[4] = target: T3, hMOR (Homo sapiens, UniProt P35372); experiment: [35S]GTP-γ-S binding assay, agonist stimulation, MOR; format: biochemical; details: stimulation of [35S]GTP-γ-S binding; no stim = no stimulation at 10 µM
[5] = target: T3, hMOR; experiment: [35S]GTP-γ-S binding assay, antagonist shift design, MOR; format: biochemical
[6] = test system: mice; experiment: 55 °C warm-water tail-withdrawal assay, i.c.v. administration; format: in vivo, Male ICR mice; details: mouse
[7] = test system: mice; format: in vivo, Male ICR mice; details: mouse, i.c.v.
[8] = target: T2, hKOR; experiment: [35S]GTP-γ-S binding assay, agonist stimulation, KOR; format: biochemical; details: stimulation of [35S]GTP-γ-S binding; no stim = no stimulation at 10 µM
[9] = target: hDOR (Homo sapiens, UniProt P41143); experiment: Radioligand displacement binding, [3H]DADLE, CHO cell membranes expressing hDOR; details: 18a vs 17b, 18d vs 17f
hDOR, sequence (P41143 whole entry): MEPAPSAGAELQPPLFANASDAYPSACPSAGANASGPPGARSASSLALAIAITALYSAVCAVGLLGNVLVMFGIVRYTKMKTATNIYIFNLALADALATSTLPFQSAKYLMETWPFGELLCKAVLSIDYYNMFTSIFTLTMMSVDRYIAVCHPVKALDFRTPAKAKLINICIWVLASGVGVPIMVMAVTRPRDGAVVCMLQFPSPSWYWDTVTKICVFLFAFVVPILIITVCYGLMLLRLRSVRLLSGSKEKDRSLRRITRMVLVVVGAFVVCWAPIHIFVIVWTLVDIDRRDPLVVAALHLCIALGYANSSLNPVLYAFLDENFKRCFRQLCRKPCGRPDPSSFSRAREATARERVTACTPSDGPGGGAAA

T3 sequence (P35372 whole entry): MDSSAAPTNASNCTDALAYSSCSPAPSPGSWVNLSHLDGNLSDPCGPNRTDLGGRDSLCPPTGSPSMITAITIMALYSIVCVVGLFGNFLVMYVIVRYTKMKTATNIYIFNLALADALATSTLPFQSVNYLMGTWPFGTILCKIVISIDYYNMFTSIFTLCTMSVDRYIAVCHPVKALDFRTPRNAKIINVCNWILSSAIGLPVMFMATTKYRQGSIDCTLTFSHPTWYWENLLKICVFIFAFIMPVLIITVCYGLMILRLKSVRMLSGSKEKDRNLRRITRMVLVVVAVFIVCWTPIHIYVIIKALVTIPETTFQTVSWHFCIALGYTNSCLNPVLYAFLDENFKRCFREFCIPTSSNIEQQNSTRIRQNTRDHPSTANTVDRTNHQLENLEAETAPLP
T2 sequence (P41145 whole entry): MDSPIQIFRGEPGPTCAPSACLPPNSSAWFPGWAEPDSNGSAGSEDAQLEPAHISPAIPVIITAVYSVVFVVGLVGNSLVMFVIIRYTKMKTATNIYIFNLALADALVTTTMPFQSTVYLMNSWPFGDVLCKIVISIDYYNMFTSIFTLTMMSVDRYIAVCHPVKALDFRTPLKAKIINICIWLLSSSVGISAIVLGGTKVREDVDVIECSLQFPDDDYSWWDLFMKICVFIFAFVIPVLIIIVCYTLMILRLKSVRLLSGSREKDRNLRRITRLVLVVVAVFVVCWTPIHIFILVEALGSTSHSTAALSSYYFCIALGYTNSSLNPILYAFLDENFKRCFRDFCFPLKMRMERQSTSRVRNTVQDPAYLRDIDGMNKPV
T1 sequence (P32300 whole entry): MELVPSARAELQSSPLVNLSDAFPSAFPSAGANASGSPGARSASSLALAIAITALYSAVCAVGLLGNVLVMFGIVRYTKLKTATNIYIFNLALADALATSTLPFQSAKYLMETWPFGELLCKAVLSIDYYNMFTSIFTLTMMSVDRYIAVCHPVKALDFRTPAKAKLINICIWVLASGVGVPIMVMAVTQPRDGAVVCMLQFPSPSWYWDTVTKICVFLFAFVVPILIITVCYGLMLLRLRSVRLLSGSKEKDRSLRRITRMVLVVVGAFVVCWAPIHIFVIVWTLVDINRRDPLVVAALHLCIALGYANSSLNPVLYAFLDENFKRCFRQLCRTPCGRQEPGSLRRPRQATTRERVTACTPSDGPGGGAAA

Compound	EC50 [1] [nM]	Kb [2] [nM]	Kb [3] [nM]	DOR EC50 [1]	MOR EC50 [4]	Kb [5] [nM]	dose for maximal antinociception [6] [nmol]	fold weaker analgesic effect than other tested ligands ([6]; tail-withdrawal) [fold]	toxicity on repeated administration [7]	KOR EC50 [8]	fold weaker in binding to DOR compared to 14-benzyloxy counterpart [9] [fold]
CN1CC[C@]23c4c5ccc(O)c4O[C@H]2c2ncc(-c4ccc(Cl)cc4)cc2C[C@@]3(OCc2ccccc2)[C@H]1C5 [17f, 14-Benzyloxy-5′-(4-chlorophenyl)-6,7-didehydro-4,5α-epoxy-3-hydroxy-17-methylpyrido[2′,3′:6,7]morphinan]	11 ± 1	83 ± 14	4.54 ± 0.81								
O=C(Cc1ccccc1)O[C@@]12Cc3cc(-c4ccc(Cl)cc4)cnc3[C@@H]3Oc4c(O)ccc5c4[C@@]31CCN(CC1CC1)[C@@H]2C5 [18b, 5′-(4-Chlorophenyl)-17-(cyclopropylmethyl)-6,7-didehydro-4,5α-epoxy-3-hydroxy-14-(phenylacetoxy)pyrido[2′,3′:6,7]morphinan]		7 ± 2	0.37 ± 0.04	no stim	no stim	0.48 ± 0.06					
CO[C@@]12Cc3cc(-c4ccc(Cl)cc4)cnc3[C@@H]3Oc4c(O)ccc5c4[C@@]31CCN(C)[C@@H]2C5 [17e, 5′-(4-Chlorophenyl)-6,7-didehydro-4,5α-epoxy-3-hydroxy-14-methoxy-17-methylpyrido[2′,3′:6,7]morphinan]		17 ± 0.13	1.6 ± 0.35	no stim			10	6			
O=C(CCc1ccccc1)O[C@@]12Cc3cc(-c4ccc(Cl)cc4)cnc3[C@@H]3Oc4c(O)ccc5c4[C@@]31CCN(CC1CC1)[C@@H]2C5 [18c, 5′-(4-Chlorophenyl)-17-(cyclopropylmethyl)-6,7-didehydro-4,5α-epoxy-3-hydroxy-14-(3-phenylpropionyloxy)pyrido[2′,3′:6,7]morphinan]		14 ± 2	1.86 ± 0.21	no stim	no stim	13 ± 1.7					
CN1CC[C@]23c4c5ccc(O)c4O[C@H]2c2ncc(-c4ccc(Cl)cc4)cc2C[C@@]3(OC(=O)CCc2ccccc2)[C@H]1C5 [18f, 5′-(4-Chlorophenyl)-6,7-didehydro-4,5α-epoxy-3-hydroxy-17-methyl-14-(3-phenylpropionyloxy)pyrido[2′,3′:6,7]morphinan]	5.52 ± 0.53	18 ± 0.2	1.64 ± 0.3								
CN1CC[C@]23c4c5ccc(O)c4O[C@H]2c2ncc(-c4ccc(Cl)cc4)cc2C[C@@]3(OC/C=C/c2ccccc2)[C@H]1C5 [17g, 5′-(4-Chlorophenyl)-14-cinnamyloxy-6,7-didehydro-4,5α-epoxy-3-hydroxy-17-methylpyrido[2′,3′:6,7]morphinan]	0.59 ± 0.05						1		undue toxicity		
Oc1ccc2c3c1O[C@H]1c4ncc(-c5ccc(Cl)cc5)cc4C=C4[C@@H](C2)N(CC2CC2)CC[C@]431 [compound 23, 5′-(4-Chlorophenyl)-17-(cyclopropylmethyl)-3-hydroxy-6,7,8,14-tetradehydro-4,5α-epoxypyrido[2′,3′:6,7]morphinan]		19 ± 3	0.58 ± 0.1	no stim	no stim	8 ± 0.89				no stim	
CN1CC[C@]23c4c5ccc(O)c4O[C@H]2c2ncc(-c4ccc(Cl)cc4)cc2C[C@@]3(OCCCc2ccccc2)[C@H]1C5 [17h, 5′-(4-Chlorophenyl)-6,7-didehydro-4,5α-epoxy-3-hydroxy-17-methyl-14-(3-phenylpropoxy)pyrido[2′,3′:6,7]morphinan]	0.27 ± 0.03	6.9 ± 0.02					1		undue toxicity	no stim	
Oc1ccc2c3c1O[C@H]1c4ncc(-c5ccc(Cl)cc5)cc4C[C@@]4(OCCCc5ccccc5)[C@@H](C2)N(CC2CC2)CC[C@]314 [17d, 5′-(4-Chlorophenyl)-17-(cyclopropylmethyl)-6,7-didehydro-4,5α-epoxy-3-hydroxy-14-(3-phenylpropoxy)pyrido[2′,3′:6,7]morphinan]			0.091 ± 0.01	no stim			1				
CN1CC[C@]23c4c5ccc(O)c4O[C@H]2c2ncc(-c4ccc(Cl)cc4)cc2C[C@@]3(OC(=O)c2ccccc2)[C@H]1C5 [18d, 14-Benzoyloxy-5′-(4-chlorophenyl)-6,7-didehydro-4,5α-epoxy-3-hydroxy-17-methylpyrido[2′,3′:6,7]morphinan]		426 ± 47	45 ± 6	no stim		1270 ± 166				no stim	10
Oc1ccc2c3c1O[C@H]1c4ncc(-c5ccc(Cl)cc5)cc4C[C@@]4(OCc5ccccc5)[C@@H](C2)N(CC2CC2)CC[C@]314 [17b, 14-(Benzyloxy)-5′-(4-chlorophenyl)-17-(cyclopropylmethyl)-6,7-didehydro-4,5α-epoxy-3-hydroxypyrido[2′,3′:6,7]morphinan]		13 ± 3	0.64 ± 0.11	no stim	no stim	11 ± 1					
CN1CC[C@]23c4c5ccc(O)c4O[C@H]2[C@@H](O)C=C[C@H]3[C@H]1C5 [Morphine, reference compound]							10				
CO[C@@]12Cc3cc(-c4ccc(Cl)cc4)cnc3[C@@H]3Oc4c(O)ccc5c4[C@@]31CCN(CC1CC1)[C@@H]2C5 [17a, 5′-(4-Chlorophenyl)-17-(cyclopropylmethyl)-6,7-didehydro-4,5α-epoxy-3-hydroxy-14-methoxypyrido[2′,3′:6,7]morphinan]				no stim ^b	no stim						
CN1CC[C@]23c4c5ccc(O)c4O[C@H]2c2ncc(-c4ccc(Cl)cc4)cc2C[C@@]3(OC(=O)Cc2ccccc2)[C@H]1C5 [18e, 5′-(4-Chlorophenyl)-6,7-didehydro-4,5α-epoxy-3-hydroxy-17-methyl-14-(phenylacetoxy)pyrido[2′,3′:6,7]morphinan]	19 ± 6	198 ± 20	3.38 ± 0.34								
O=C(O[C@@]12Cc3cc(-c4ccc(Cl)cc4)cnc3[C@@H]3Oc4c(O)ccc5c4[C@@]31CCN(CC1CC1)[C@@H]2C5)c1ccccc1 [18a, 14-Benzoyloxy-5′-(4-chlorophenyl)-17-(cyclopropylmethyl)-6,7-didehydro-4,5α-epoxy-3-hydroxypyrido[2′,3′:6,7]morphinan]		126 ± 13	218 ± 2	no stim	no stim	261 ± 36				no stim	45
Oc1ccc2c3c1O[C@H]1c4ncc(-c5ccc(Cl)cc5)cc4C[C@@]4(OC/C=C/c5ccccc5)[C@@H](C2)N(CC2CC2)CC[C@]314 [17c, 5′-(4-Chlorophenyl)-14-cinnamyloxy-17-(cyclopropylmethyl)-6,7-didehydro-4,5α-epoxy-3-hydroxypyrido[2′,3′:6,7]morphinan]				no stim	no stim						
